Source: patent publication US20260274814A1, “THIENYL COMPOUNDS FOR THE TREATMENT OF A CENTRAL NERVOUS SYSTEM DISEASE OR DISORDER” (Coreterra Therapeutics, Inc., priority 2023, published 2026)
Structures can show the parent of a compound that is named as a salt. Where two headings read alike, the source gives them in different places.

Tested on: mice
Assay: Neuropharmacological Assay (SmartCube): automated behavioral signature of compound-treated mice compared with a database of reference drug classes
Format: in vivo
Conditions: for minimal effective dose: Mus musculus, ip, read-out: MED; for minimal effective dose / MED: minimal effective dose: dose having 45% or more total activity in SmartCube, i.p., that dose is shown
In short: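 Probabilities of matching each neuropharmacological class (e.g. anxiolytic, antidepressant) come from algorithmic analysis of digitally recorded behaviour, reported for 3.0 mg/kg. Compounds were given intraperitoneally in a Pharmasolve/PEG/propylene glycol vehicle 15 min pre-test. Minimal effective dose is the lowest dose reaching 45% or more total activity.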

[1] = SmartCube class probability, 3.0 mg/kg i.p., 15 min before test
[2] = SmartCube class probability, 3.0 mg/kg i.p., 15 min before test, hydrochloride, 3 mg/kg
[3] = SmartCube class probability, 3.0 mg/kg i.p., 15 min before test, 3 mg/kg
[4] = SmartCube probability class, 3.0 mg/kg dose, i.p. 15 min before the behavioral test
[5] = SmartCube probability class, 3.0 mg/kg dose, i.p. 15 min before the behavioral test, hydrochloride, 3 mg/kg

CNC1CCc2scc(C3CCC3)c2C1 (single isomer, unassigned) [Compound 267, 3-cyclobutyl-N-methyl-4,5,6,7-tetrahydrobenzothiophen-5-amine hydrochloride]
minimal effective dose (if only one dose tested): > 3 mg/kg | AD [1]: ND (^ <4%) | AG [1]: ND (^ <4%) | AN [1]: ND (^ <4%) | AP [1]: ND (^ <4%) | AX [1]: ND (^ <4%) | CE [1]: ND (^ <4%) | HL [1]: ND (^ <4%) | MS [1]: ND (^ <4%) | PS [1]: ND (^ <4%) | SH [1]: ND (^ <4%) | UK [2]: + (≥4%)

CNC1CCc2scc(C3CCC3)c2C1 (single isomer, unassigned) [Compound 268, 3-cyclobutyl-N-methyl-4,5,6,7-tetrahydrobenzothiophen-5-amine hydrochloride]
AD [1]: ND (^ <4%) | AG [1]: ND (^ <4%) | AN [1]: ND (^ <4%) | AP [1]: ND (^ <4%) | AX [1]: ND (^ <4%) | CE [1]: ND (^ <4%) | HL [1]: ND (^ <4%) | MS [1]: ND (^ <4%) | PS [1]: ND (^ <4%) | SH [1]: ND (^ <4%) | UK [2]: ND (^ <4%) | MED (if only one dose tested): >3 mpk

CC1(N2CCCC2)CCc2ccsc2C1 (single isomer, unassigned) [Compound 275, 1-(6-methyl-4,5,6,7-tetrahydrobenzo[b]thiophen-6-yl)pyrrolidine]
minimal effective dose (if only one dose tested): 3 mg/kg | AD [1]: ND (^ <4%) | AG [1]: ND (^ <4%) | AN [1]: ND (^ <4%) | AP [1]: ND (^ <4%) | CE [1]: ND (^ <4%) | HL [1]: ND (^ <4%) | MS [1]: ND (^ <4%) | SH [1]: ND (^ <4%) | UK [1]: ND (^ <4%) | AX [3]: ND (^ <4%) | PS [3]: ++++ (≥74%)

CC1(N2CCCC2)CCc2ccsc2C1 (single isomer, unassigned) [Compound 276, 1-(6-methyl-4,5,6,7-tetrahydrobenzo[b]thiophen-6-yl)pyrrolidine]
AD [1]: ND (^ <4%) | AG [1]: ND (^ <4%) | AN [1]: ND (^ <4%) | AP [1]: ND (^ <4%) | CE [1]: ND (^ <4%) | HL [1]: ND (^ <4%) | MS [1]: ND (^ <4%) | SH [1]: ND (^ <4%) | UK [1]: ND (^ <4%) | AX [3]: ++++ (≥74%) | PS [3]: ND (^ <4%) | MED (if only one dose tested): 3 mpk

NC1CCc2scc(C3CC3)c2C1 (single isomer, unassigned) [Compound 277, 3-cyclopropyl-4,5,6,7-tetrahydrobenzothiophen-5-amine hydrochloride]
minimal effective dose (if only one dose tested): > 3 mg/kg | AD [1]: ND (^ <4%) | AG [1]: ND (^ <4%) | AN [1]: ND (^ <4%) | AP [1]: ND (^ <4%) | AX [1]: ND (^ <4%) | CE [1]: ND (^ <4%) | HL [1]: ND (^ <4%) | MS [1]: ND (^ <4%) | PS [1]: ND (^ <4%) | SH [1]: ND (^ <4%) | UK [1]: + (≥4%)

NC1CCc2scc(C3CC3)c2C1 (single isomer, unassigned) [Compound 278, 3-cyclopropyl-4,5,6,7-tetrahydrobenzothiophen-5-amine hydrochloride]
AD [1]: ND (^ <4%) | UK [1]: + (≥4%) | MED (if only one dose tested): >3 mpk

CCc1csc2c1CC(N)CC2 (single isomer, unassigned) [Compound 279, 3-ethyl-4,5,6,7-tetrahydrobenzothiophen-5-amine hydrochloride]
minimal effective dose (if only one dose was tested): 3 mg/kg | AD [4]: ND (^ <4%) | AG [4]: ND (^ <4%) | AN [4]: ND (^ <4%) | AP [4]: ND (^ <4%) | AX [4]: ND (^ <4%) | CE [4]: ND (^ <4%) | HL [4]: ND (^ <4%) | MS [4]: ND (^ <4%) | PS [4]: ND (^ <4%) | SH [4]: ND (^ <4%) | UK [5]: ++ (≥24%)

CCc1csc2c1CC(N)CC2 (single isomer, unassigned) [Compound 280, 3-ethyl-4,5,6,7-tetrahydrobenzothiophen-5-amine hydrochloride]
AD [4]: ND (^ <4%) | AG [4]: ND (^ <4%) | AN [4]: ND (^ <4%) | AP [4]: ND (^ <4%) | AX [4]: ND (^ <4%) | CE [4]: ND (^ <4%) | HL [4]: ND (^ <4%) | MS [4]: ND (^ <4%) | PS [4]: ND (^ <4%) | SH [4]: ND (^ <4%) | UK [5]: +++ (≥49%) | MED (if only one dose was tested): 3 mpk

CC1(N)CCc2sccc2C1 (single isomer, unassigned) [Compound 281, 5-methyl-4,5,6,7-tetrahydrobenzo[b]thiophen-5-amine hydrochloride]
minimal effective dose (if only one dose was tested): 3 mg/kg | AD [4]: ++++ (≥74%) | AG [4]: ND (^ <4%) | AN [4]: ND (^ <4%) | CE [4]: ND (^ <4%) | HL [4]: ND (^ <4%) | MS [4]: ND (^ <4%) | PS [4]: ND (^ <4%) | SH [4]: ND (^ <4%) | UK [4]: ND (^ <4%) | AP [5]: + (≥4%) | AX [5]: + (≥4%)

CC1(N)CCc2sccc2C1 (single isomer, unassigned) [Compound 282, 5-methyl-4,5,6,7-tetrahydrobenzo[b]thiophen-5-amine hydrochloride]
AD [4]: ++++ (≥74%) | AG [4]: ND (^ <4%) | AN [4]: ND (^ <4%) | CE [4]: ND (^ <4%) | HL [4]: ND (^ <4%) | MS [4]: ND (^ <4%) | PS [4]: ND (^ <4%) | SH [4]: ND (^ <4%) | UK [4]: ND (^ <4%) | AP [5]: ND (^ <4%) | AX [5]: ND (^ <4%) | MED (if only one dose was tested): 3 mpk

CC1(N2CCCC2)CCc2sccc2C1.Cl (single isomer, unassigned) [Compound 283, 1-(5-methyl-4,5,6,7-tetrahydrobenzo[b]thiophen-5-yl)pyrrolidine hydrochloride]
minimal effective dose (if only one dose was tested): 3 mg/kg | AD [4]: ND (^ <4%) | AG [4]: ND (^ <4%) | AN [4]: ND (^ <4%) | AP [4]: ND (^ <4%) | AX [4]: ND (^ <4%) | CE [4]: ND (^ <4%) | HL [4]: ND (^ <4%) | MS [4]: ND (^ <4%) | PS [4]: ND (^ <4%) | SH [4]: ND (^ <4%) | UK [5]: + (≥4%)

CC1(N2CCCC2)CCc2sccc2C1.Cl (single isomer, unassigned) [Compound 284, 1-(5-methyl-4,5,6,7-tetrahydrobenzo[b]thiophen-5-yl)pyrrolidine hydrochloride]
AD [4]: ND (^ <4%) | AG [4]: ND (^ <4%) | AN [4]: ND (^ <4%) | AP [4]: ND (^ <4%) | AX [4]: ND (^ <4%) | CE [4]: ND (^ <4%) | HL [4]: ND (^ <4%) | MS [4]: ND (^ <4%) | PS [4]: ND (^ <4%) | SH [4]: ND (^ <4%) | UK [5]: ++ (≥24%) | MED (if only one dose was tested): 3 mpk

CNC1COc2scc(C(F)(F)F)c2C1 (single isomer, unassigned) [Compound 289, N-methyl-5-(trifluoromethyl)-3,4-dihydro-2H-thieno[2,3-b]pyran-3-amine hydrochloride]
minimal effective dose (if only one dose was tested): > 3 mg/kg | AD [4]: ND (^ <4%) | AG [4]: ND (^ <4%) | AN [4]: ND (^ <4%) | AP [4]: ND (^ <4%) | AX [4]: ND (^ <4%) | CE [4]: ND (^ <4%) | HL [4]: ND (^ <4%) | MS [4]: ND (^ <4%) | PS [4]: ND (^ <4%) | SH [4]: ND (^ <4%) | UK [4]: + (≥4%)

CNC1COc2scc(C(F)(F)F)c2C1 (single isomer, unassigned) [Compound 290, N-methyl-5-(trifluoromethyl)-3,4-dihydro-2H-thieno[2,3-b]pyran-3-amine hydrochloride]
AD [4]: ND (^ <4%) | UK [4]: + (≥4%) | MED (if only one dose was tested): >3 mpk

CCC1(NC)CCc2sccc2C1 (single isomer, unassigned) [Compound 291, 5-ethyl-N-methyl-6,7-dihydro-4H-benzothiophen-5-amine hydrochloride]
minimal effective dose (if only one dose was tested): > 3 mg/kg | AD [4]: ND (^ <4%) | AG [4]: ND (^ <4%) | AN [4]: ND (^ <4%) | AP [4]: ND (^ <4%) | AX [4]: ND (^ <4%) | CE [4]: ND (^ <4%) | HL [4]: ND (^ <4%) | MS [4]: ND (^ <4%) | PS [4]: ND (^ <4%) | SH [4]: ND (^ <4%) | UK [5]: + (≥4%)

CCC1(NC)CCc2sccc2C1 (single isomer, unassigned) [Compound 292, 5-ethyl-N-methyl-6,7-dihydro-4H-benzothiophen-5-amine hydrochloride]
AD [4]: ND (^ <4%) | AG [4]: ND (^ <4%) | AN [4]: ND (^ <4%) | AP [4]: ND (^ <4%) | AX [4]: ND (^ <4%) | CE [4]: ND (^ <4%) | HL [4]: ND (^ <4%) | MS [4]: ND (^ <4%) | PS [4]: ND (^ <4%) | SH [4]: ND (^ <4%) | UK [5]: ++ (≥24%) | MED (if only one dose was tested): >3 mpk
